Data: patent US20230183237A1, “COMPETITIVE AND NONCOMPETITIVE INHIBITORS OF THE MUSCARINIC ACETYLCHOLINE RECEPTOR M5” (Vanderbilt University, priority 2020, published 2023)
Read-outs that look alike come from different tables or passages of the source.

Biological target: T1, hM5 (Homo sapiens, UniProt P08912)
T1 construct: expressed in transfected cells
T1 sequence (P08912 1-532): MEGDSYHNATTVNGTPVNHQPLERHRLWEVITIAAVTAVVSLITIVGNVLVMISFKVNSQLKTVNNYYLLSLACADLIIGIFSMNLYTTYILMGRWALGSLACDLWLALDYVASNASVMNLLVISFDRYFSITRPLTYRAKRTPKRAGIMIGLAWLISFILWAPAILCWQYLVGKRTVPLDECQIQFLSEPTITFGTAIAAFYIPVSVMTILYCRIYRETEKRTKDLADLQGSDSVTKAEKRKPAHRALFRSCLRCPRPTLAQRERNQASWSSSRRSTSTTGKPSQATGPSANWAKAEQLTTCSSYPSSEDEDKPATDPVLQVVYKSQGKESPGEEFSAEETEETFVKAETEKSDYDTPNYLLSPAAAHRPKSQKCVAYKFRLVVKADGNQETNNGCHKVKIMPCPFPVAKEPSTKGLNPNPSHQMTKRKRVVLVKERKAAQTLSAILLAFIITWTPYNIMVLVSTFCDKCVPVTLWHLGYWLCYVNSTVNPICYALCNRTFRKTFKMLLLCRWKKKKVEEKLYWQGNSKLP
Assay: Calcium mobilization concentration-response (IC50 vs EC80 acetylcholine), CHO hM5
Type: cell-based
Settings: CELL LINE hM5, read-out: IC50
Summary of the method: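 CHO cells stably expressing hM5, dye-loaded, in HBSS/20 mM HEPES/2.5 mM probenecid, pH 7.4. Compounds were pre-incubated 140 s before an EC80 acetylcholine challenge, with calcium flux read kinetically.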

[1] = calcium mobilization, EC80 acetylcholine addition

| IC50 [1] [nM] | IC50 (vs EC80 acetylcholine) [nM] | SMILES |
| --- | --- | --- |
| 746 |  | O=S(=O)(c1ccc2c(c1)CCO2)N1CCC(c2cn3ncnc3cc2C(F)(F)F)CC1 [Compound 109, 6-(1-((2,3-dihydrobenzofuran-5-yl)sulfonyl)piperidin-4-yl)-7-(trifluoromethyl)-[1,2,4]triazolo[1,5-a]pyridine] |
|  | 1260 | Cn1ncc(S(=O)(=O)N2CCC(F)(c3cn4ncnc4cc3F)CC2)c1C(F)F [Compound 504, 6-(1-((5-(difluoromethyl)-1-methyl-1H-pyrazol-4-yl)sulfonyl)-4-fluoropiperidin-4-yl)-7-fiuoro-[1,2,4]triazolo[1,5-a]pyridine] |
| > 10000 |  | Cc1cc2ncnn2cc1C1CCN(S(=O)(=O)c2c[nH]cn2)CC1 [Compound 155, 6-(1-((1H-imidazol-4-yl)sulfonyl)piperidin-4-yl)-7-methyl-[1,2,4]triazolo[1,5-a]pyridine] |
|  | 291 | Cc1cc2ncnn2cc1C1CCN(S(=O)(=O)c2cnc(Cl)s2)CC1 [Compound 523, 2-chloro-5-((4-(7-methyl-[1,2,4]triazolo[1,5-a]pyridin-6-yl)piperidin-1-yl)sulfonyl)thiazole] |
| > 10000 |  | Cc1c(C2CCN(S(=O)(=O)c3ccc4c(c3)CCO4)CC2)nn2ccnc2c1C [Compound 45, 6-(1-((2,3-dihydrobenzofuran-5-yl)sulfonyl)piperidin-4-yl)-7,8-dimethylimidazo[1,2-b]pyridazine] |
|  | > 10000 | COC1(c2cn3ncnc3cc2C)CCN(S(=O)(=O)c2cnn3c2OCCC3)CC1 [Compound 416, 3-((4-methoxy-4-(7-methyl-[1,2,4]triazolo[1,5-a]pyridin-6-yl)piperidin-1-yl)sulfonyl)-6,7-dihydro-5H-pyrazolo[5,1-b][1,3]oxazine] |
| 20 |  | Cc1cc2ncnn2cc1[C@@H]1CCN(S(=O)(=O)c2cnn(C)c2C)C[C@H]1F (racemic) [Compound 174, (rac)-6-(trans-1-((1,5-Dimethyl-1H-pyrazol-4-yl)sulfonyl)-3-fluoropiperidin-4-yl)-7-methyl-[1,2,4]triazolo[1,5-a]pyridine] |
|  | 2110 | Cc1cc2ncnn2cc1C1(F)CCN(S(=O)(=O)c2cn(C)nn2)CC1 [Compound 588, 6-(4-fluoro-1-((1-methyl-1H-1,2,3-triazol-4-yl)sulfonyl)piperidin-4-yl)-7-methyl-[1,2,4]triazolo[1,5-a]pyridine] |
| > 10000 |  | Cn1ccc(-c2cc3ncnn3cc2C2CCN(S(=O)(=O)c3cnn4c3CCCC4)CC2)n1 [Compound 333, 7-(1-methyl-1H-pyrazol-3yl)-6-(1-((4,5,6,7-tetrahydropyrazolo[1,5-a]pyridin-3-yl)sulfonyl)piperidin-4-yl)-[1,2,4]triazolo[1,5-a]pyridine] |
|  | 28 | Cc1nnc(S(=O)(=O)N2CCC(c3cn4ncnc4cc3Cl)CC2)s1 [Compound 540, 2-((4-(7-Chloro[1,2,4]triazolo[1,5-a]pyridin-6-yl)piperidin-1-yl)sulfonyl)-5-methyl-1,3,4-thiadiazole] |
|  | 67 | COc1c(S(=O)(=O)N2CCC(c3cn4ncnc4cc3C(F)(F)F)CC2)cnn1C [Compound 585, 6-(1-((5-methoxy-1-methyl-1H-pyrazol-4-yl)sulfonyl)piperidin-4-yl)-7-(trifluoromethyl)-[1,2,4]triazolo[1,5-a]pyridine] |
|  | 2360 | Cc1ncc(S(=O)(=O)N2CCC(c3cc4cccnc4cc3C)CC2)s1 [Compound 449, 2-methyl-5-((4-(7-methylquinolin-6-yl)piperidin-1-yl)sulfonyl)thiazole] |
| 2600 |  | Cc1cc2nccn2cc1C1CCN(S(=O)(=O)c2cc3c(cc2F)OCC3)CC1 [Compound 67, 6-(1-((6-fluoro-2,3-dihydrobenzofuran-5-yl)sulfonyl)piperidin-4-yl)-7-methylimidazo[1,2-a]pyridine] |
| 19 |  | Cn1ncc(S(=O)(=O)N2CCC(c3cn4ncnc4cc3Cl)CC2)c1C(F)F [Compound 295, 7-chloro-6-(1-((5-(difluoromethyl)-1-methyl-1H-pyrazol-4-yl)sulfonyl)piperidin-4-yl)-[1,2,4]triazolo[1,5-a]pyridine] |
|  | 18 | Cc1cc2ncnn2cc1C1CCN(S(=O)(=O)c2cnn(C)c2C#N)CC1 [Compound 400, 1-Methyl-4-((4-(7-methyl-[1,2,4]triazolo[1,5-a]pyridin-6-yl)piperidin-1-yl)sulfonyl)-1H-pyrazole-5-carbonitrile] |
| > 10000 |  | O=S(=O)(c1ccc2ncsc2c1)N1CCC(c2ccncc2)CC1 [Compound 1, 6-((4-(pyridin-4-yl)piperidin-1-yl)sulfonyl)benzo[d]thiazole] |
| > 10000 |  | Cc1cc2ncnn2cc1C1(O)CCN(S(=O)(=O)c2ccc3c(c2)CCO3)CC1 [Compound 310, 1-((2,3-dihydrobenzofuran-5-yl)sulfonyl)-4-(7-methyl-[1,2,4]triazolo[1,5-a]pyridin-6-yl)piperidin-4-ol] |
|  | 137 | COc1c(S(=O)(=O)N2CCC(c3cn4ncnc4cc3F)CC2)cnn1C [Compound 574, 7-fluoro-6-(1-((5-methoxy-1-methyl-1H-pyrazol-4-yl)sulfonyl)piperidin-4-yl)-[1,2,4]triazolo[1,5-a]pyridine] |
| > 10000 |  | Cc1sc(C(N)=O)nc1C1=CCN(S(=O)(=O)c2cnn(C)c2C)CC1 [Compound 202, 4-(1-((1,5-dimethyl-1H-pyrazol-4-yl)sulfonyl)-1,2,3,6-tetrahydropyridin-4-yl)-5-methylthiazole-2-carboxamide] |
| 9.8 |  | Cc1cc2ncnn2cc1C1CCN(S(=O)(=O)c2cnc3n2CCCC3)CC1 [Compound 322, 7-methyl-6-(1-((5,6,7,8-tetrahydroimidazo[1,2-a]pyridin-3-yl)sulfonyl)piperidin-4-yl)-[1,2,4]triazolo[1,5-a]pyridine] |
|  | 22 | [2H]C([2H])([2H])Oc1c(S(=O)(=O)N2CCC(c3cn4ncnc4cc3Cl)CC2)cnn1C [Compound 613, 7-chloro-6-(1-((5-(methoxy-d3)-1-methyl-1H-pyrazol-4-yl)sulfonyl)piperidin-4-yl)-[1,2,4]triazolo[1,5-a]pyridine] |
|  | 1650 | Cc1c(C2CCN(S(=O)(=O)c3cnc(Cl)s3)CC2)cn2ncnc2c1F [Compound 534, 2-chloro-5-((4-(8-fluoro-7-methyl-[1,2,4]triazolo[1,5-a]pyridin-6-yl)piperidin-1-yl)sulfonyl)thiazole] |
| 636 |  | [2H]C1([2H])Oc2cc(C)c(C3CCN(S(=O)(=O)c4cnc(C)n4C)CC3)cc2OC1([2H])[2H] [Compound 391, 1-((1,2-dimethyl-1H-imidazol-5-yl)sulfonyl)-4-(7-methyl-2,3-dihydrobenzo[b][1,4]dioxin-6-yl-2,2,3,3-d4)piperidine] |
| 64 |  | Cc1cc2nccnc2cc1C1=CCN(S(=O)(=O)c2cnn(C)c2C)CC1 [Compound 354, 6-(1((1,5-dimethyl-1H-pyrazol-4-yl)sulfonyl)-1,2,3,6-tetrahydropyridin-4-yl)-7-methylquinoxaline] |
| > 10000 |  | O=S(=O)(c1ccc2ncsc2c1)N1CCC(c2cn3ccccc3n2)CC1 [Compound 9, 6-((4-(imidazo[1,2-a]pyridin-2-yl)piperidin-1-yl)sulfonyl)benzo[d]thiazole] |
|  | 174 | [2H]C1([2H])CC(c2cn3ncnc3c(F)c2C)CC([2H])([2H])N1S(=O)(=O)c1cnc(C)o1 [Compound 569, 5-((4-(8-fluoro-7-methyl-[1,2,4]triazolo[1,5-a]pyridin-6-yl)piperidin-1-yl-2,2,6,6-d4)sulfonyl)-2-methyloxazole] |
